From PubChem BioAssay (NCI)
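Abbreviation: GI50, concentration required for 50% inhibition of growth. TGI denotes the concentration required for complete inhibition of growth.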

Assays:
Experiment in all cases: NCI-60 cell line screen, 384-well format
SF-268 CNS = tested on: SF-268 CNS
HCC-2998 colon = tested on: HCC-2998 colon
RXF 393 renal = tested on: RXF 393 renal
MOLT-4 leukemia = tested on: MOLT-4 leukemia
MDA-MB-468 breast = tested on: MDA-MB-468 breast
SNB-75 CNS = tested on: SNB-75 CNS
OVCAR-5 ovarian = tested on: OVCAR-5 ovarian
SK-OV-3 ovarian = tested on: SK-OV-3 ovarian
CCRF-CEM leukemia = tested on: CCRF-CEM leukemia
HOP-62 NSCLC = tested on: HOP-62 NSCLC
NCI-H226 lung = tested on: NCI-H226 lung
IGROV1 ovarian = tested on: IGROV1 ovarian
SK-MEL-5 melanoma = tested on: SK-MEL-5 melanoma
SF-539 CNS = tested on: SF-539 CNS
NCI-H522 lung = tested on: NCI-H522 lung
MALME-3M melanoma = tested on: MALME-3M melanoma
A498 renal = tested on: A498 renal
UO-31 renal = tested on: UO-31 renal
SNB-19 CNS = tested on: SNB-19 CNS
UACC-257 melanoma = tested on: UACC-257 melanoma
K-562 leukemia = tested on: K-562 leukemia
SK-MEL-2 melanoma = tested on: SK-MEL-2 melanoma
HCT-116 colon = tested on: HCT-116 colon
HS 578T breast = tested on: HS 578T breast
SR leukemia = tested on: SR leukemia
DU-145 prostate = tested on: DU-145 prostate
T-47D breast = tested on: T-47D breast
PC-3 prostate = tested on: PC-3 prostate
MDA-MB-231 breast = tested on: MDA-MB-231 breast
OVCAR-4 ovarian = tested on: OVCAR-4 ovarian
COLO 205 colon = tested on: COLO 205 colon
TK-10 renal = tested on: TK-10 renal
LOX IMVI melanoma = tested on: LOX IMVI melanoma
HOP-92 NSCLC = tested on: HOP-92 NSCLC
CAKI-1 renal = tested on: CAKI-1 renal
HT29 colon = tested on: HT29 colon
KM12 colon = tested on: KM12 colon
A549 NSCLC = tested on: A549 NSCLC
SW-620 colon = tested on: SW-620 colon
EKVX NSCLC = tested on: EKVX NSCLC
BT-549 breast = tested on: BT-549 breast
M14 melanoma = tested on: M14 melanoma
ACHN renal = tested on: ACHN renal
HL-60(TB) leukemia = tested on: HL-60(TB) leukemia
NCI-H23 lung = tested on: NCI-H23 lung
SK-MEL-28 melanoma = tested on: SK-MEL-28 melanoma
U251 glioblastoma = tested on: U251 glioblastoma
NCI-H322M lung = tested on: NCI-H322M lung
SN12C renal = tested on: SN12C renal
HCT-15 colon = tested on: HCT-15 colon
786-0 renal = tested on: 786-0 renal
NCI-H460 NSCLC = tested on: NCI-H460 NSCLC
UACC-62 melanoma = tested on: UACC-62 melanoma
NCI/ADR-RES ovarian = tested on: NCI/ADR-RES ovarian
MCF7 breast = tested on: MCF7 breast
SF-295 CNS = tested on: SF-295 CNS

Cc1cncc2cccc(S(=O)(=O)N3CCCNC[C@@H]3C)c12
GI50 (SF-268 CNS): 11.7 µM
TGI (SF-268 CNS): 87.3 µM
GI50 (HCC-2998 colon): 42.4 µM
TGI (HCC-2998 colon): > 100 µM
GI50 (RXF 393 renal): 5.06 µM
TGI (RXF 393 renal): 22.6 µM
GI50 (MOLT-4 leukemia): 0.492 µM
TGI (MOLT-4 leukemia): 1.65 µM
GI50 (MDA-MB-468 breast): 1.02 µM
TGI (MDA-MB-468 breast): 2.28 µM
GI50 (SNB-75 CNS): 1.66 µM
TGI (SNB-75 CNS): 10 µM
GI50 (OVCAR-5 ovarian): 25.5 µM
TGI (OVCAR-5 ovarian): > 100 µM
GI50 (SK-OV-3 ovarian): 18.5 µM
TGI (SK-OV-3 ovarian): > 100 µM
GI50 (CCRF-CEM leukemia): 1.25 µM
TGI (CCRF-CEM leukemia): 2.57 µM
GI50 (HOP-62 NSCLC): 11.3 µM
TGI (HOP-62 NSCLC): 62.4 µM
GI50 (NCI-H226 lung): 13.2 µM
TGI (NCI-H226 lung): 68.2 µM
GI50 (IGROV1 ovarian): 7.65 µM
TGI (IGROV1 ovarian): 58.1 µM
GI50 (SK-MEL-5 melanoma): 5.64 µM
TGI (SK-MEL-5 melanoma): > 100 µM
GI50 (SF-539 CNS): 4.32 µM
TGI (SF-539 CNS): 20.1 µM
GI50 (NCI-H522 lung): 1.71 µM
TGI (NCI-H522 lung): 5.04 µM
GI50 (MALME-3M melanoma): > 100 µM
TGI (MALME-3M melanoma): > 100 µM
GI50 (A498 renal): > 100 µM
TGI (A498 renal): > 100 µM
GI50 (UO-31 renal): 10.6 µM
TGI (UO-31 renal): 24 µM
GI50 (SNB-19 CNS): 8.41 µM
TGI (SNB-19 CNS): > 100 µM
GI50 (UACC-257 melanoma): > 100 µM
TGI (UACC-257 melanoma): > 100 µM
GI50 (K-562 leukemia): 0.537 µM
TGI (K-562 leukemia): > 100 µM
GI50 (SK-MEL-2 melanoma): 7.56 µM
TGI (SK-MEL-2 melanoma): 42.4 µM
GI50 (HCT-116 colon): 7.52 µM
TGI (HCT-116 colon): 48 µM
GI50 (HS 578T breast): 1.89 µM
TGI (HS 578T breast): 4.55 µM
GI50 (SR leukemia): 0.227 µM
TGI (SR leukemia): 0.389 µM
GI50 (DU-145 prostate): 5.94 µM
TGI (DU-145 prostate): > 100 µM
GI50 (T-47D breast): > 100 µM
TGI (T-47D breast): > 100 µM
GI50 (PC-3 prostate): 8.81 µM
TGI (PC-3 prostate): > 100 µM
GI50 (MDA-MB-231 breast): 14.9 µM
TGI (MDA-MB-231 breast): 43.8 µM
GI50 (OVCAR-4 ovarian): > 100 µM
TGI (OVCAR-4 ovarian): > 100 µM
GI50 (COLO 205 colon): 3.03 µM
TGI (COLO 205 colon): 11 µM
GI50 (TK-10 renal): 10.1 µM
TGI (TK-10 renal): 37.3 µM
GI50 (LOX IMVI melanoma): 12.1 µM
TGI (LOX IMVI melanoma): 31.8 µM
GI50 (HOP-92 NSCLC): 10.3 µM
TGI (HOP-92 NSCLC): 36.1 µM
GI50 (CAKI-1 renal): 7.51 µM
TGI (CAKI-1 renal): 24.7 µM
GI50 (HT29 colon): 4.96 µM
TGI (HT29 colon): > 100 µM
GI50 (KM12 colon): 16.4 µM
TGI (KM12 colon): 81.2 µM
GI50 (A549 NSCLC): 11.2 µM
TGI (A549 NSCLC): 49.4 µM
GI50 (SW-620 colon): 2.74 µM
TGI (SW-620 colon): 10.7 µM
GI50 (EKVX NSCLC): 16.3 µM
TGI (EKVX NSCLC): > 100 µM
GI50 (BT-549 breast): 1.8 µM
TGI (BT-549 breast): 7.48 µM
GI50 (M14 melanoma): > 100 µM
TGI (M14 melanoma): > 100 µM
GI50 (ACHN renal): 25.9 µM
TGI (ACHN renal): > 100 µM
GI50 (HL-60(TB) leukemia): 1.49 µM
TGI (HL-60(TB) leukemia): 3.09 µM
GI50 (NCI-H23 lung): 10.8 µM
TGI (NCI-H23 lung): 52 µM
GI50 (SK-MEL-28 melanoma): > 100 µM
TGI (SK-MEL-28 melanoma): > 100 µM
GI50 (U251 glioblastoma): 5.17 µM
TGI (U251 glioblastoma): > 100 µM
GI50 (NCI-H322M lung): 87.7 µM
TGI (NCI-H322M lung): > 100 µM
GI50 (SN12C renal): 15.1 µM
TGI (SN12C renal): 61.1 µM
GI50 (HCT-15 colon): 11.2 µM
TGI (HCT-15 colon): > 100 µM
GI50 ([…]-0 renal): 13.6 µM
TGI (786-0 renal): > 100 µM
GI50 (NCI-H460 NSCLC): 2.54 µM
TGI (NCI-H460 NSCLC): 67.8 µM
GI50 (UACC-62 melanoma): 2.04 µM
TGI (UACC-62 melanoma): 50.2 µM
GI50 (NCI/ADR-RES ovarian): 3.63 µM
TGI (NCI/ADR-RES ovarian): > 100 µM
GI50 (MCF7 breast): 28 µM
TGI (MCF7 breast): > 100 µM
GI50 (SF-295 CNS): 4.35 µM
TGI (SF-295 CNS): > 100 µM
